“And” between values parts separate entries of the source, which are not always exact repeats. Equal entries are not always repeated.
Key:
Format in all cases: physicochemical
[1] = Dye diffusion, solution test; conditions: pH 13.4, 0.0025 M dye
Text: (§1) The released dyes in Table I were also subjected to the conditions of two different dye diffusion tests. One, the "solution test" involved dissolving the dye in a viscous composition and transferring it through a receiving element which contains an opaque and reflecting layer in addition to the mordant layer. The other, a "gel pad test" involved imbibing the dye from solution into a thick gelatin layer, and then transferring it by direct lamination to the same receiving element which had been preswollen by soaking 5 minutes in a solution of […].
(§2) A transparent poly(ethylene terephthalate) film support coated with
(§3) (3) an overcoat layer of gelatin (4.3).
The viscous composition was prepared from 46.2 g potassium hydroxide and 54 g carboxymethylcellulose dissolved in 1200 ml water. […] Measurement of the rate of dye diffusion was commenced at the point at which half of the laminate had passed through the rollers. The appearance of dye on the mordant was measured at λmax as diffuse reflection density vs. time. The reflection density was converted to transmission density by computer with the aid of a mathematical relation derived from a previous calibration. A plot of transmission density, which is proportional to concentration vs. time, was derived; and the value of t-1/2 of dye transfer, the time in seconds required to obtain one-half of the maximum transmission density, calculated.

[2] = Comparative spectra on mordanted strips (Example 2); conditions: 2:1 nickel complex on mordanted strip; for HBW: band width at half Dmax; for λmax: wavelength(s) at actual Dmax
Text: The absorption envelope of each of the metallized dyes is described by (1) the wavelength(s), λmax, at the actual Dmax, (2) the λ1/2 which is the mean of the wavelength limits of the absorption envelope at half the maximum density, and (3) the halfband width (HBW) which is the band width at half the Dmax. A narrow HBW generally designates a purer hue.

[3] = Dye diffusion, gel pad test; conditions: 0.1 M KOH, 1.3×10^-3 M dye
Text: as §1, §2, §3
A donor element, containing a thick pad of deionized acid-processed gelatin (26 g/m^2) hardened with 2 percent bis(vinylsulfonylmethyl)ether, was imbibed with a solution of 0.1 M in potassium hydroxide and 1.3×10^-3 M in dye. The pad was soaked to full penetration, surface wiped, and then laminated in direct contact to the above receiving element which had been presoaked for 5 minutes at 0.1 M KOH. The t-1/2 of dye transfer was obtained as in the solution test.

[4] = Light stability (percent fade after HID xenon arc irradiation); conditions: 10 days HID 6000 W xenon arc, 50,000 lux, Wratten 2B filter, approx. 38° C.
Text: An alternative receiving element was used with the premetallized dye-complexes. It comprised a poly(ethylene terephthalate) film support having thereon a layer of gelatin (1.1 g/m^2) and a mordant layer of poly(styrene-co-1-vinylimidazole-co-3-benzyl-1-vinylimidazolium chloride (50:40:10) (4.5 g/m^2) and gelatin (2.2 g/m^2).
The above receiving elements at pH 7 were then subjected to 10 days irradiation by a high intensity daylight (HID), 6000 W Xenon arc lamp, the sample receiving 50,000 lux through a Wratten 2B (ultraviolet) filter at approximately 38° C. and low humidity. The percent fade represents the loss in density at λmax after irradiation.

[5] = Transmission spectra of Ni-dye complexes on mordanted receiving element (Example 1); conditions: pH 7.0 buffer
[6] = Spectra of Ni-dye complexes in solution; conditions: 3:1 dioxane:water, pH 7, excess nickel ion; for Solution HBW of Ni-dye complex: half band width
Text: The receiver was removed from the dye solution, washed in distilled water, placed in a pH 7.0 buffer solution and dried. Transmission spectra obtained on each sample of the mordanted dyes were normalized by computer to a density of 1.0. The characteristic wavelength of the dye, λ1/2 in nm, is the mean of the wavelength limits of the absorption envelope at half the maximum density. The HBW ("half band width") in nm is the range or distance between those limits. The dye solution spectrum in 3:1 dioxane:water at pH 7 in the presence of excess nickel ion is also given.

[7] = Extinction in solution with Ni2+ (synthesis examples)
Procedure: To a solution of 5.5 g (12.1 mmol) Compound E in 200 ml tetrahydrofuran, 100 ml pyridine and 4.8 g (37.2 mmol) N,N-diisopropylethylamine was added 3.0 g (3.17 mmol) 3,6-bis(1-p-t-butylphenylethyl)-2,5-bis(N-n-dodecylchloroformamidomethyl)benzoquinone (see U.S. Pat. No. 4,204,870, Col. 31). After stirring for 1 hour, an additional 2.5 g (2.64 mmol) of the acid chloride is added and the reaction stirred 28 hours at room temperature. The crude reaction mixture was concentrated to ca. 100 ml in vacuo at 40° C. and the residue was partitioned between ethyl acetate and 3 N HCl. The layers were separated, the organic phase washed with 3 N HCl (until washings were acidic), water and saturated sodium chloride solution. After drying (MgSO4) the organic phase was evaporated in vacuo and the residue recrystallized twice from 350-400 ml ethanol. Yield 7.5 g (72 percent) of yellow solid: ε^550 =13.0×10^4 (3:1 dioxane-pH 6 buffer+excess Ni^2+).
A solution of 5.0 g (31.4 mmol) quinoline-5,8-quinone [T. Urbanski and S. Krzyzanowski, Roczniki Chem., 27, 390 (1953); Chem. Abstr., 49, 1041b (1955)] in 50 ml ethyl alcohol and 100 ml tetrahydrofuran was chilled to <5° C. Concentrated HCl (1 ml) and a cold slurry of 10.0 g (31.8 mmol) 3-chloro-5-(m-hydroxyphenylsulfamoyl)-7-pyridylhydrazine in 100 ml ethyl alcohol/0.5 ml concentrated HCl were added in that order. […]

[8] = premetallized compound, alternative receiving element
[9] = nickel sulfate/gelatin + poly(4-vinylpyridine)/gelatin mordant receiver, normalized to density 1.0

Molecule	Dye diffusion t1/2, Soln. [1] [s]	% Fade (loss in density at λmax) ([4]; low humidity, pH 7) [%]	Mordant HBW of Ni-dye complex [5, 9] [nm]	Mordant λ1/2 of Ni-dye complex [5, 9] [nm]	Solution λ1/2 of Ni-dye complex [6] [nm]	Solution HBW of Ni-dye complex [6] [nm]	λ1/2 [2] [nm]	HBW [2] [nm]	λmax [2]	Dye diffusion t1/2, Gel Pad [3] [s]	further results
2:1 nickel complex of 2-(2-pyridylazo)-4-sulfamoyl-1-naphthol [Control Dye 1]	49						537	101	553 nm and 567 nm	281	
2:1 nickel complex of 6-(2-carboxy-4-chlorphenylazo)-2,3-pyridinediol [Control Dye 3]							545	86	555 nm		
NS(=O)(=O)c1cccc(NS(=O)(=O)c2cnc(N=Nc3ccc(O)c4cccnc34)c(Cl)c2)c1 [A]	41	2	76	553	548	70				183	% Fade (loss in density at λmax) [4, 8]: 3%; Mordant HBW of Ni-dye complex [5, 8]: 85 nm; Mordant λ1/2 of Ni-dye complex [5, 8]: 555 nm; Solution HBW of Ni-dye complex ([6]; listed as A'): 68 nm; Solution λ1/2 of Ni-dye complex ([6]; listed as A'): 545 nm; Dye diffusion t1/2, Gel Pad ([3]; listed as A'): 235 s
NS(=O)(=O)c1cnc(N=Nc2ccc(O)c3cccnc23)c(Cl)c1 [B]	31	0	67	545	543	65				108	% Fade (loss in density at λmax) [4, 8]: 4%; Mordant HBW of Ni-dye complex [5, 8]: 71 nm; Mordant λ1/2 of Ni-dye complex [5, 8]: 546 nm; Solution HBW of Ni-dye complex ([6]; listed as B'): 68 nm; Solution λ1/2 of Ni-dye complex ([6]; listed as B'): 544 nm; Dye diffusion t1/2, Gel Pad ([3]; listed as B'): 161 s
CCCCCCCCCCCCN(CC1=C(C(C)c2ccc(C(C)(C)C)cc2)C(=O)C(CN(CCCCCCCCCCCC)C(=O)Oc2cccc(NS(=O)(=O)c3cnc(N=Nc4ccc(O)c5cccnc45)c(Cl)c3)c2)=C(C(C)c2ccc(C(C)(C)C)cc2)C1=O)C(=O)Oc1cccc(NS(=O)(=O)c2cnc(N=Nc3ccc(O)c4cccnc34)c(Cl)c2)c1 (stereo not drawn) [Compound 3]											ε^550 ([7]; 3:1 dioxane-pH 6 buffer + excess Ni^2+): 13.0×10^4
COc1cc(S(=O)(=O)NC(C)(C)C)cnc1N=Nc1ccc(O)c2cccnc12 [Compound C]	37		82	563	560	79	545	67	560 nm		
CC(C)NS(=O)(=O)c1cnc(N=Nc2ccc(O)c3cccnc23)c(Cl)c1 [Compound D]	44		66	547	543	68					
CN(c1ccccc1)c1ccc(N=Nc2ccc(S(N)(=O)=O)cn2)c([O-])c1.CN(c1ccccc1)c1ccc(N=Nc2ccc(S(N)(=O)=O)cn2)c([O-])c1.[Ni+2] [Control Dye 2, 2:1 nickel complex of 2-(5-sulfamoyl-2-pyridylazo)-5-(N-methylanilino)phenol]	45						540	116	540 nm and 572 nm	265	

Now from value to molecule, other results behind:

Dye diffusion t1/2, Soln. [1] [s]	% Fade (loss in density at λmax) ([4]; low humidity, pH 7) [%]	Mordant HBW of Ni-dye complex [5, 9] [nm]	Mordant λ1/2 of Ni-dye complex [5, 9] [nm]	Solution λ1/2 of Ni-dye complex [6] [nm]	Solution HBW of Ni-dye complex [6] [nm]	Molecule	λ1/2 [2] [nm]	HBW [2] [nm]	λmax [2]	Dye diffusion t1/2, Gel Pad [3] [s]	further results
39	1	70	550	544	65	O=S(=O)(Nc1cccc(O)c1)c1cnc(N=Nc2ccc(O)c3cccnc23)c(Cl)c1 [Compound E, 8-[3-Chloro-5-(m-hydroxyphenylsulfamoyl)-2-pyridylazo]-5-quinolinol]					ε^550 ([7]; 3:1 dioxane-pH 6 buffer + Ni^2+): 6.6×10^4
69	0	66	546	543	68	CN(c1cccc(O)c1)S(=O)(=O)c1cnc(N=Nc2ccc(O)c3cccnc23)c(Cl)c1 [F]					
81	0	70	548	542	65	O=S(=O)(Nc1ccccc1)c1cnc(N=Nc2ccc(O)c3cccnc23)c(Cl)c1 [G]					
49	7	72	549	548	63	CC(C)NS(=O)(=O)c1cnc(N=Nc2ccc(O)c3cc(C(=O)Nc4cccc(O)c4)c(Cl)nc23)c(Cl)c1 [H]					
40	0	87	568	559	78	COc1cc(S(=O)(=O)Nc2cccc(O)c2)cnc1N=Nc1ccc(O)c2cccnc12 [J]					

Reference: patent publication US4436799A, “Photographic products and processes employing novel nondiffusible magenta dye-releasing compounds and precursors thereof” (priority 1983, dated 1984)
